The values that follow are results of earlier work, collected in PMC2862725 (Molecular cancer therapeutics, 2009).

Like-named read-outs stand apart in the source and are kept apart here.

The conditions of data set [1]: wild-type tumor group; set equal to single-dose PK/PD model ref 9.
For data set [2] the following is noted: vIII mutant tumor group; set equal to single-dose PK/PD model ref 9.
The conditions of data set [3]: n = 5, two patients with malignant gliomas.

For `COc1cc2ncnc(Nc3ccc(F)c(Cl)c3)c2cc1OCCCN1CCOCC1` [gefitinib, Gefitinib], the “Vc volume of distribution of the central compartment” value in data set [1] is reported as 75.0 mL; in data set [2] it was 103.8 mL. For the same compound, the “gefitinib brain tumor concentration, mean” value in data set [3] was 9.4 ± 9.3 µg/g.
